Experiments:
H2K mdx cells = assay: WST-1 cell viability assay in H2K mdx cells; assay type: cell-based, mouse; settings: 2.5 μM to 25 μM, 12 hours
Protocol: The possible toxicity of the PNA-peptide conjugates in H2K mdx cells was examined using a WST-1 assay, which measures the metabolic activity of viable cells. Cells were grown in 96-well microplates overnight and treated with unmodified PNA as a control or PNA-peptide conjugates for 12 hours, and then incubated with WST-1 for approximately 4 hours. During this incubation period, viable cells convert WST-1 to a water-soluble formazan dye which is then quantified using an ELISA plate reader.

[1] = system: exon and intron 23 of the dystrophin gene; assay: Example 2: intramuscular injection, nested RT-PCR of exon skipping; assay type: in vivo, mdx mice; settings: 5 ug intramuscular, 4 weeks after injection (peak)
Protocol: Total RNA was extracted from tested muscle tissues with Trizol (Invitrogen, UK) and 200 ng of RNA template was used for 20 μl RT-PCR with OneStep RT-PCR kit (Qiagen, UK). The primer sequences for the initial RT-PCR were Exon20Fo 5′-[…]-3′ and Ex26Ro 5′-[…]-3′ for amplification of messenger RNA from exons 20 to 26. The cycle conditions were 95° C. for 30 seconds, 55° C. for 1 minute and 72° C. for 2 minutes for 25 cycles. RT-PCR product (1 μl) was then used as the template for secondary PCR performed in […] with 0.5 U Taq DNA polymerase (Invitrogen, UK). The primer sequences for the second round were Ex20Fi 5′-[…]-3′ and Ex24Ri 5′-[…]-3. The cycle conditions were 95° C. for 1 minute, 57° C. for 1 minute, and 72° C. for 2 min for 25 cycles. The products were examined by electrophoresis on a 2% agarose gel.
(§1) For intramuscular studies the TA muscle of each experimental mdx mouse was injected with a […] dose of PNA and PNA-peptide conjugates with saline at a final concentration of 125 μg/ml. For systemic intravenous injections, Various amount of PNA or PNA-peptide conjugates in 80 μl saline buffer were injected into tail vein of mdx mice at the final dose of 25 mg/kg, 50 mg/kg and 100 mg/kg, respectively. The animals were killed at various time points after injection by CO2 inhalation and tissues were removed and snap-frozen in liquid nitrogen-cooled isopentane and stored at −80° C.

[2] = system: exon and intron 23 of the dystrophin gene; assay: Example 2: intramuscular injection, Western blot of dystrophin; assay type: in vivo, mdx mice; settings: 5 ug intramuscular
Protocol: as §1
The collected sections were placed in a 1.5 ml polypropylene eppendorf tube (Anachem, UK) on dry ice. The tissue sections were lysed with 150 μl protein extraction buffer containing 125 mmol/l Tris-HCl (pH=6.8), 10% sodium dodecyl sulphate, 2 mol/l urea, 20% glycerol, and 5% 2-mercaptoethanol. […] The supernatant was collected and the protein concentration was quantified by Bradford assay (Sigma, UK). […] The bound primary antibody was detected by horseradish peroxidise-conjugated rabbit anti-mouse IgGs and the ECL Western Blotting Analysis system (Amersham Pharmacia Biosciences, UK). The intensity of the bands obtained from treated mdx muscles was measured by Image J software; the quantification is based on band intensity and area, and is compared with that from normal muscles of C57BL6 mice.

[3] = system: exon and intron 23 of the dystrophin gene; assay: Example 2: systemic intravenous tail vein injection, dystrophin immunostaining of muscles; assay type: in vivo, mdx mice
Text: To develop AO splice correction therapy for DMD it is essential to establish effective systemic dystrophin correction since DMD is a systemic disease affecting all skeletal muscles, including the diaphragm, and cardiac muscle. Other AO chemistries, including 2′OMePS and PMO chemistries, have been reported to yield variable dystrophin splice correction following intravenous systemic delivery in mdx mice, with high systemic doses being required to detect appreciable efficacy. Here we wished to evaluate the potential of neutral PNA AOs for systemic splice correction in body-wide muscles, and initially evaluated a dose-response using three intravenous single PNA doses of 25, 50 and 100 mg/kg administered to 6 week old mdx mice via tail vein injections. […]
Sections of 8 μm were cut from at least two-thirds of the muscle length of TA, quadriceps, gastrocnemius, biceps, abdominal wall and diaphragm muscles and cardiac muscle at 100 μm intervals. […] The maximum number of dystrophin-positive fibres in one section was counted using the Zeiss AxioVision fluorescence microscope. […] Polyclonal antibodies were detected by goat-anti-rabbit IgGs Alexa Fluro 594 (Molecular Probe, UK). Polyclonal antibodies were detected by goat-anti-rabbit IgGs Alexa 594 (Molecular Probe, UK).

[4] = system: exon and intron 23 of the dystrophin gene; assay: Example 2: systemic intravenous injection, RT-PCR of exon skipping; assay type: in vivo, mdx mice; settings: intravenous 25, 50 and 100 mg/kg; gastrocnemius and abdominal muscles, not other muscles
Text: To develop AO splice correction therapy for DMD it is essential to establish effective systemic dystrophin correction since DMD is a systemic disease affecting all skeletal muscles, including the diaphragm, and cardiac muscle. Other AO chemistries, including 2′OMePS and PMO chemistries, have been reported to yield variable dystrophin splice correction following intravenous systemic delivery in mdx mice, with high systemic doses being required to detect appreciable efficacy. Here we wished to evaluate the potential of neutral PNA AOs for systemic splice correction in body-wide muscles, and initially evaluated a dose-response using three intravenous single PNA doses of 25, 50 and 100 mg/kg administered to 6 week old mdx mice via tail vein injections. Dystrophin expression was studied by immunostaining of muscle tissue sections from various peripheral muscles (including quadriceps, gastrocnemius, biceps, abdominal wall, diaphragm) and heart muscle three weeks after AO administration (FIG. 7A). […] Measures of phenotypic correction, including serum biochemical measurements of creatine kinase and AST/ALT enzyme levels were negative (FIGS. 7C and D).
Total RNA was extracted from tested muscle tissues with Trizol (Invitrogen, UK) and 200 ng of RNA template was used for 20 μl RT-PCR with OneStep RT-PCR kit (Qiagen, UK). […]

## 5′-ggccaaaccteggcttacct-3′ [PNA]
H2K mdx cells
  Toxicity or inhibition of cell proliferation (WST-1): not observed
[1]
  targeted dystrophin transcripts showing splice correction (RT-PCR): about 50%
[2]; 8 week time point
  level of dystrophin protein restored (Western blot): about 20 % of normal levels
[2]; 20 weeks post administration
  dystrophin protein (Western blot): considerably reduced levels
[3]; intravenous 25, 50 and 100 mg/kg
  dose response of dystrophin positive fibres: No evidence of a dose response
[3]; single intravenous 25, 50 and 100 mg/kg, 6 week old mdx mice, three weeks, all muscle groups except diaphragm and heart
  number of dystrophin positive fibres in peripheral muscles and heart: low nevertheless showing a significant increase
[4]
  exon skipping (RT-PCR): only very level of exon skipping

Source: patent publication US20110130346A1, “PEPTIDE CONJUGATES FOR DELVERY OF BIOLOGICALLY ACTIVE COMPOUNDS” (ISIS INNOVATION LIMITED, priority 2008, published 2011)
